Results reported in article PMC9886550, “Molecular mechanism of topoisomerase poisoning by the peptide antibiotic albicidin” (Nature Catalysis, 2023).

Legend:
Format in all cases: biochemical
[1] = molecular target: E. coli Topo IV (Escherichia coli, UniProt P0AFI2+P20083); experiment: E. coli Topo IV relaxation assay; settings: tested 0.1, 1, 10, 100 µM
Method: E. coli Topo IV relaxation assays were set up in the same way as supercoiling assays with some modifications. The substrate was negatively supercoiled DNA, E. coli Topo IV relaxation buffer (50 mM K-HEPES pH 7.6, 100 mM potassium glutamate, 10 mM magnesium acetate, 10 mM DTT, 1 mM ATP and 0.05 mg ml^−1 BSA) and reactions were incubated for 1 h. Reactions were stopped in the same way as supercoiling assays.
(§1) Results were visualized by agarose gel electrophoresis: 1% agarose Tris-acetate-EDTA (TAE) gels were run without ethidium bromide (supercoiling) or with 10 µg ml^−1 ethidium bromide (cleavage) at 8 V cm^−1.
Supplementary Figure 11. Activity of albicidin and Albi-1/2/3 on E. coli topoisomerase IV. a. Plasmid relaxation activity of E. coli topo IV in the presence of albicidin, Albi-1, Albi-2 and Albi-3. First lane: negatively supercoiled pBR322; second lane: innate relaxation activity of E. coli topo IV (12.5 nM); third lane: effect of 20 µM CFX; subsequent lanes: effect of increasing compound concentration (0.1, 1, 10, 100 […]
higher concentration. b. Cleavage activity of E. coli topo IV in the presence of albicidin, Albi-1, Albi-2 and Albi-3. First lane: negatively supercoiled pBR322; second lane: innate cleavage activity of E. coli topo IV (15 nM); third lane: effect of 20 µM CFX; subsequent lanes: effect of increasing compound concentration (0.1, 1, 10, 100 µM). […]
concentration. All experiments were carried out in triplicates and representative gels […]
(1 picture or pasted object on this page, not shown here)

[2] = molecular target: T1, WT E. coli gyrase (Escherichia coli, UniProt P0AES4+P0AES6); experiment: biochemical; settings: for % maximal cleavage: GyraseWT, average of 3 independent assays
T1 construct: alternative cryo-EM approach involving full-length E. coli gyrase; 10-His (cleaved yes); Twin-Strep (cleaved yes); made in house
Method: (§2) For DNA gyrase supercoiling assays to characterize gyrase mutants, 15 µl reactions were set up containing 250 ng of relaxed DNA, E. coli gyrase supercoiling buffer (35 mM Tris–Cl pH 7.5, 24 mM KCl, 4 mM MgCl2, 2 mM DTT, 1.8 mM spermidine, 1 mM ATP, 6.0% (w/v) glycerol, and 0.1 mg ml^−1 BSA), gyrase subunits and inhibitors. Concentrations of enzyme and inhibitor are stated in the figure legends. Inhibitors were diluted in the following way to reduce the chance of precipitation: stock compound in 100% DMSO was diluted to 5 mM in 100% DMSO. This compound solution was diluted to 1 mM by stepwise addition of 1 µl of 50% DMSO with thorough mixing via pipetting after each addition. All subsequent dilutions up to 100 µM were performed in the same way using H2O. After this point, compounds were stable and could be diluted in the normal way. Reactions were incubated at 37 °C for 30 min before stopping with 15 µl chloroform:isoamyl alcohol (24:1 v/v) and 15 µl of STEB (40% (w/v) sucrose, 100 mM Tris–Cl pH 8, 10 mM EDTA, 0.5 mg ml^−1 bromophenol blue).
(§3) Cleavage assays were set up in the same way as supercoiling assays with some modifications. The concentration of enzyme was increased 4-fold relative to the supercoiling assay and reactions were incubated for 1 h before addition of 0.2% SDS and proteinase K (0.2 mg ml^−1) and further incubation at 37 °C for 30 min to trap cleavage complexes. Reactions were stopped in the same way as supercoiling assays.
as §1
(§4) DNA cleavage gels were analysed using densitometry (ImageJ). Experiments were carried out in triplicate and expressed as mean ± s.d. Curves were fitted using OriginPro 2021 (Origin Lab) according to a modified Hill equation:1 y=cI+(cF−cI)[…]/(k^n+x^n) where y is the percentage of cleaved DNA, cI is the initial cleavage, cF is the final cleavage, k is the CC50 (the concentration of inhibitor that results in cleavage of 50% of DNA), n is a slope factor and x is the inhibitor concentration.

[3] = molecular target: T2, E. coli gyrase GyrB^K447W (Escherichia coli, UniProt P0AES4+P0AES6, K447W); experiment: DNA gyrase cleavage assay (CC50, % cleaved DNA); settings: for % maximal cleavage: GyrBK447W, average of 3 independent assays; for EC50: GyrB^K447W, mean ± s.d. of triplicate
T2 construct: alternative cryo-EM approach involving full-length E. coli gyrase; 10-His (cleaved yes); Twin-Strep (cleaved yes); made in house
Method: as §2, §3, §1, §4

[4] = molecular target: T3, E. coli gyrase GyrA^S83L (Escherichia coli, UniProt P0AES4+P0AES6, S83L); experiment: DNA gyrase cleavage assay (CC50, % cleaved DNA); settings: for % maximal cleavage: GyrAS83L, average of 3 independent assays; for EC50: GyrA^S83L, mean ± s.d. of triplicate
T3 construct: alternative cryo-EM approach involving full-length E. coli gyrase; 10-His (cleaved yes); Twin-Strep (cleaved yes); made in house
Method: as §2, §3, §1, §4

[5] = molecular target: T4, E. coli gyrase GyrA^V70A (Escherichia coli, UniProt P0AES4+P0AES6, V70A); experiment: DNA gyrase cleavage assay (CC50, % cleaved DNA); settings: for % maximal cleavage: GyrAV70A, average of 3 independent assays; for EC50: GyrA^V70A, mean ± s.d. of triplicate
T4 construct: alternative cryo-EM approach involving full-length E. coli gyrase; 10-His (cleaved yes); Twin-Strep (cleaved yes); made in house
Method: as §2, §3, §1, §4

[6] = molecular target: T5, E. coli gyrase GyrA^M120A (Escherichia coli, UniProt P0AES4+P0AES6, M120A); experiment: DNA gyrase cleavage assay (CC50, % cleaved DNA); settings: for % maximal cleavage: GyrAM120A, average of 3 independent assays; for EC50: GyrA^M120A, mean ± s.d. of triplicate
T5 construct: alternative cryo-EM approach involving full-length E. coli gyrase; 10-His (cleaved yes); Twin-Strep (cleaved yes); made in house
Method: as §2, §3, §1, §4

[7] = molecular target: T6, E. coli gyrase GyrA^A67Q (Escherichia coli, UniProt P0AES4+P0AES6, A67Q); experiment: DNA gyrase cleavage assay (CC50, % cleaved DNA)
T6 construct: alternative cryo-EM approach involving full-length E. coli gyrase; 10-His (cleaved yes); Twin-Strep (cleaved yes); made in house
Method: as §2, §3, §1, §4

Sequence of E. coli Topo IV (P0AFI2 whole entry): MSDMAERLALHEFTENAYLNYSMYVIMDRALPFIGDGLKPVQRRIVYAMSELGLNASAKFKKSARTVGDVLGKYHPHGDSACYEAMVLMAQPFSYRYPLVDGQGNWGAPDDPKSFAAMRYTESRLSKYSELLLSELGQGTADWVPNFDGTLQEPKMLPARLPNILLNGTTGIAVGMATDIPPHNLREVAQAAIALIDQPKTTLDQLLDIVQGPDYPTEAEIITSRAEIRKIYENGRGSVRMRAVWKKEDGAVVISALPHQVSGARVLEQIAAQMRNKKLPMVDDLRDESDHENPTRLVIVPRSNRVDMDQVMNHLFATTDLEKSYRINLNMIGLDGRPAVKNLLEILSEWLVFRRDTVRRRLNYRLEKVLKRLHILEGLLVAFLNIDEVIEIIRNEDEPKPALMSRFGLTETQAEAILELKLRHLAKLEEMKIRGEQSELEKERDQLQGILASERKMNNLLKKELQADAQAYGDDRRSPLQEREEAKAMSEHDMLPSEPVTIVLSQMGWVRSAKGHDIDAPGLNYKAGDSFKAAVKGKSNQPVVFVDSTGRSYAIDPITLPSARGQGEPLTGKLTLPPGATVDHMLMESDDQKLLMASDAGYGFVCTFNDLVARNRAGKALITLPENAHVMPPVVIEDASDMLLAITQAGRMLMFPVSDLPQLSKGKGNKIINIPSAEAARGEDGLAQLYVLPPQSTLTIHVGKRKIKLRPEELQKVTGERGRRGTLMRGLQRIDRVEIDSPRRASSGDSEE
Sequence of E. coli Topo IV (P20083 whole entry): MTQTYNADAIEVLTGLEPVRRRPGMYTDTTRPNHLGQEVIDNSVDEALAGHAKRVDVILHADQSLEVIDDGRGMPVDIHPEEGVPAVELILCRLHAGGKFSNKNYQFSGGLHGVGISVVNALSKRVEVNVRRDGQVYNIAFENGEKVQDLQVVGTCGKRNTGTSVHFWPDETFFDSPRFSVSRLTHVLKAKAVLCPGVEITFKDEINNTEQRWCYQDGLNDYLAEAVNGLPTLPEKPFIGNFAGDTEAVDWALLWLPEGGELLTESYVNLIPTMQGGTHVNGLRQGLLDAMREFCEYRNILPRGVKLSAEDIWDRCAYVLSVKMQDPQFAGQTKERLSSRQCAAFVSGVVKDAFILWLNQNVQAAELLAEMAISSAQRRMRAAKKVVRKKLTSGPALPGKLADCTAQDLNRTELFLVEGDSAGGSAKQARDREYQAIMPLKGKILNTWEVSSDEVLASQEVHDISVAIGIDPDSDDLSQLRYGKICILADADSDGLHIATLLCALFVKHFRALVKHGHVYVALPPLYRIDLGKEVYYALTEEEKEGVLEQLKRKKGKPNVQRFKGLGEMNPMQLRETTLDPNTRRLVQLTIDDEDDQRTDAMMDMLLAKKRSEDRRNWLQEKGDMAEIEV

Row | SMILES | concentration required for full inhibition of Topo IV relaxation activity [1] [µM] | % maximal cleavage [2] [%] | EC50 ([2]; Gyrase^WT, mean ± s.d. of triplicate, read-out: CC50 (the source's name)) [nM] | % maximal cleavage [3] [%] | increase in CC50 ([3]; GyrB^K447W vs WT gyrase, 60 min) | EC50 [3] [nM] | % maximal cleavage [4] [%] | EC50 [4] [nM] | % maximal cleavage [5] [%] | EC50 [5] [nM] | % maximal cleavage [6] [%] | EC50 [6] [nM] | % maximal cleavage ([7]; GyrAA67Q, average of 3 independent assays) [%] | EC50 ([7]; GyrA^A67Q, mean ± s.d. of triplicate) [nM]
1 | CC(C)Oc1c(NC(=O)c2ccc(NC(=O)[C@H](Cc3c[nH]nn3)NC(=O)c3ccc(NC(=O)c4ccc(C#N)cc4)cn3)cn2)ccc(C(=O)Nc2ccc(C(=O)O)cc2)c1O [Albi-1] | 10 | 73±6 | 8 ± 2.7 | 83±3 | more than 50 fold | 412 ± 88 | 80±14 | 10 ± 1.5 | 90±2 | 16 ± 1.3 | 68±3 | 15 ± 1.5 | 96±8 | 181 ± 67
2 | COc1c(NC(=O)c2ccc(NC(=O)c3ccc(NC(=O)[C@H](Cc4c[nH]nn4)NC(=O)c4ccc(NC(=O)c5ccc6cc(O)ccc6c5)cc4)cn3)c(OCCN)c2O)ccc(C(=O)O)c1O [Albi-2] | 100 | 78±2 |  | 59±6 |  | 251 ± 40 | 72±7 | 208 ± 34 | 58±2 | 189 ± 49 | 59±17 | 160 ± 15 |  | 
